Series [1] relates to subjects with biopsy proven NASH with fibrosis and no cirrhosis. The series is described as follows: EMMINENCE Phase 2b clinical trial, interim analysis at six months. The series is classed as in vivo, humans. The note with it: for peripheral edema present at 6 months: placebo 12.50%; for percentage of patients with high baseline ALT who returned to normal range: placebo 15%; for percentage of patients with high baseline AST who returned to normal range: placebo 20%. An excerpt:
Detailed Description: This is a randomized, double-blinded study of three doses of MSDC-0602K or placebo given orally once daily to subjects with biopsy proven NASH with fibrosis and no cirrhosis. Visits to the clinic will be at baseline, 1, 2, 3, 6, 9, and 12 months, with one 2-week follow-up visit. Safety will be assessed by monitoring of vital signs, 12 lead electrocardiogram (ECG), physical examinations, safety labs, and adverse events (AEs).
An interim analysis of the EMMINENCE Phase 2b trial was conducted in the first 328 subjects who reached their six-month follow-up visit. […] In the two highest dose groups, at least 50% of patients with elevated baseline Alanine transaminase (ALT) or Aspartate Aminotransferase (AST) improved into the normal range at six months, as shown in Table 3.
The subjects included in this interim analysis had significant liver disease, as established by liver biopsy, with an average NAS at baseline of 5.3. […] Overall, baseline characteristics were well-balanced across treatment groups.

For series [2], the system named is stellate cells in 3-dimensional bioprinted human liver organoids. In words: 3-dimensional bioprinted human liver organoids in medium with high sugars and fatty acid, collagen staining. In kind it is cell-based. The note with it: added to the tissue medium with high concentrations of sugars and fatty acid.
Series [3] concerns diet-induced obese WT (fl/fl) and LS-MPC2−/− mice. In words: single dose in diet-induced obese (60% HF diet) WT and LS-MPC2−/− mice: GTT, plasma insulin, plasma ALT, liver qPCR. The series is classed as in vivo. The note with it: for glucose tolerance (GTT): vs vehicle. On the procedure:
8 week old WT and LS-MPC2−/− mice were fed a diet of 60% fat (Research Diets D12492) for 20 weeks to induce obesity and insulin resistance. Intraperitoneal glucose tolerance tests (GTT) were performed after a 4 h fast by injection of 1 g/kg D-glucose in saline i.p. to assess glucose tolerance. 3 days after the initial GTT, mice were randomized to receive a single gavage of either vehicle (1% CMC, 0.01% Tween-80) or 30 mg/kg MSDC-0602K. Plasma insulin was measured by Singulex assay and plasma ALT levels were measured by commercially-available kits (Teco Diagnostics). qPCR was performed by isolation of total RNA with RNA-Bee and reverse transcription with a high-capacity cDNA synthesis kit (Invitrogen). qPCR was performed on an Applied Biosystems real-time thermocycler.

Series [4] relates to cell functions and key regulatory proteins. The series is described as follows: impact of MSDC-0602K vs overnutrition on cell functions and key regulatory proteins (Table 1).
Series [5] can be described thus: preclinical toxicology, six- and twelve-month animal studies. In kind it is in vivo.
Series [6] concerns mice on high fat, high cholesterol, high sugar diet. The series is described as follows: preclinical NASH model: diet enriched in trans fat, cholesterol and fructose for 19 weeks. The series is classed as in vivo. On the procedure:
Mice were fed a diet enriched in trans fat, cholesterol and fructose for 19 weeks to induce hepatic damage, which was assessed by histological changes in the NAS and fibrosis, measured by trichrome staining for collagen. MSDC-0602K (30 mg/kg) was given at either four weeks into the treatment or 16 weeks into the treatment as compared to the vehicle treated mice who were also on the modified diet. The results of mice who were kept on the normal diet are included for comparison. […] The signals for activation of the stellate cells and fibrosis are attenuated by treatment of the mice or isolated hepatocytes with MSDC-0602K.

For series [7], the system named is healthy volunteers. The series is described as follows: three Phase 1 clinical trials in 126 healthy volunteers, safety. In kind it is in vivo, humans. The note with it: Phase 1, healthy volunteers.
A short description of series [8]: clinical pharmacokinetics (Phase 1 cross-over trials, Phase 2a trial). The note with it: human, in vivo; humans, oral.
The target of series [9] is T1, MPC (mitochondrial pyruvate carrier) (Homo sapiens, UniProt O95563+Q9Y5U8).
T1 sequence (Q9Y5U8 1-109): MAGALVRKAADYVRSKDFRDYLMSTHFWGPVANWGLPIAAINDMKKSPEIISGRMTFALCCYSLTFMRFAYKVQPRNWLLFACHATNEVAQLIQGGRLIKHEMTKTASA
T1 sequence (O95563 1-127): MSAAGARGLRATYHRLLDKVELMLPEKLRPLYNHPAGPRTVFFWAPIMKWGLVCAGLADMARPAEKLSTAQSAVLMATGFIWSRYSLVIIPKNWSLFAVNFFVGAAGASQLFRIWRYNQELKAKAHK
The series is described as follows: relative binding affinities with the MPC. The note with it: FIG. 16 as printed (legend: FIG. 8); relative to rosiglitazone and pioglitazone.

For series [10], the system named is WT mice on HTF-C diet (mouse model of NASH). The series is described as follows: NASH (HTF-C) diet plasma RNA experiments: serum miRNA sequencing. In kind it is in vivo. The settings on record: HTF-C diet 4 or 16 weeks, then HTF-C diet containing 331 ppm. Here is the method: To begin evaluating the exosome cargo of MSDC-0602K-treated mice, WT mice were fed with either a low fat (LF) control diet (Research Diets D09100304) or high trans-fat, fructose, cholesterol (HTF-C) diet composed of 40% trans-fat, 20% fructose, 2% cholesterol (Research Diets D09100301).
Total RNA was isolated from 400 μL of serum and small RNA sequencing was performed by adapter ligation, cDNA synthesis and size selection of 145-160 base pairs. Sequencing was then performed on an Illumina HiSeq3000.

Series [11] is described as follows: exposure and bioavailability of MSDC-0602, its metabolite and the potassium salt. In kind it is in vivo. The note with it: parent plus metabolite exposure.
Series [12] deals with T2, PPARγ (Homo sapiens, UniProt P37231).
T2 sequence (P37231 1-505): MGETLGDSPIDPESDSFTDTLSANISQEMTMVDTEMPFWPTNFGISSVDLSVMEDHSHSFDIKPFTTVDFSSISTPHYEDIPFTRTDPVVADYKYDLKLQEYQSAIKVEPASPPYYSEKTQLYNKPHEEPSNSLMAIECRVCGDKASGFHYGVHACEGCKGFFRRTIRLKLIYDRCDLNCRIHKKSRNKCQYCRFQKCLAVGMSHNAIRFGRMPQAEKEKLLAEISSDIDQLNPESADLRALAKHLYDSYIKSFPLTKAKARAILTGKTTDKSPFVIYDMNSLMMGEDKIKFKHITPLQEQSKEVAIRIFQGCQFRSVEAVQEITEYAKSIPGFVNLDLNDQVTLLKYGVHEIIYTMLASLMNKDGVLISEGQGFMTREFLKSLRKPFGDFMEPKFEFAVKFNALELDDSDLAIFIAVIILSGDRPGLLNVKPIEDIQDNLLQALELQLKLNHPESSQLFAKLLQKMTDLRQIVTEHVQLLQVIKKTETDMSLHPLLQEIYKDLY
The series is described as follows: relative binding affinities with PPARγ. The note with it: FIG. 15 as printed (legend: FIG. 7).

“Also recorded” adds a separate entry of the source.

As a reminder, the half-life is how long it takes for the measured level to halve.

Take `COc1cccc(C(=O)COc2ccc(CC3SC(=O)NC3=O)cc2)c1` (centres unmarked) [MSDC-0602K]: the “peripheral edema present at 6 months” value in [1] (62.5 mg (n = 81), baseline 13.60%) is on record as 7.80%. Also, in [1] (62.5 mg, six months), the “percentage of patients with high baseline ALT who returned to normal range” value was 29% and the “percentage of patients with high baseline AST who returned to normal range” value came out at 36%. In addition, in series [1] (125 mg (n = 84), baseline 13.10%), the “peripheral edema present at 6 months” value was 13.50%. Besides, the “placebo-corrected reduction in ALT at six months” value in [1] (125 mg once daily, p<0.001) came to 14.3 U/L. Also, in series [1] (125 mg once daily, p=0.012), the “placebo-corrected reduction in AST at six months” value was 7.9 U/L. In addition, in series [1] (125 mg, six months), the “percentage of patients with high baseline ALT who returned to normal range” value came to 60% and the “percentage of patients with high baseline AST who returned to normal range” value came out at 50%. Besides, the “peripheral edema present at 6 months” value in [1] (250 mg (n = 85), baseline 9.40%) is 11.10%. The “placebo-corrected reduction in AST at six months” value in [1] (250 mg once daily, not significant) stood at 4.0 U/L. Moreover, the “placebo-corrected reduction in ALT at six months” value in [1] (250 mg once daily, p=0.004) came out at 10.6 U/L. Moreover, in [1] (250 mg, six months), the “percentage of patients with high baseline ALT who returned to normal range” value is listed as 56% and the “percentage of patients with high baseline AST who returned to normal range” value is listed as 52%. Further, in [1] (Type II diabetes subjects, all doses), the HbA1c entry is “statistically significant improvement”. For the same compound, the “HOMA-IR and HbA1c” value in [1] (all MSDC-0602K dose cohorts, six months) is on record as “Statistically significant reductions”. Further, the “fasting glucose, HbA1c, insulin levels, and HOMA-IR” value in series [1] (all subjects, six months, 125 mg and 250 mg doses) is on record as “statistically significant improvements”. Further, the Adiponectin entry in series [1] (all treatment cohorts, dose dependent) is “increased significantly”. In addition, in series [1] (first 328 subjects), the “liver enzymes, including ALT and AST, at six months compared to baseline” value is recorded as “statistically significant reductions”. Moreover, the lipids entry in [1] (overall) is given as “neutral effect”. In [1] (reported in fourteen subjects, blinded across cohorts), the “treatment emergent serious adverse events” value is given as “none of which were determined by the investigator to be drug-related”. Moreover, in series [1] (six months), the “additional biomarkers of fibrosis such as hematocrit” value is recorded as “trends for improvement”; the “bilirubin, alkaline phosphatase, and gamma GT liver enzymes” value was “Improvements”. The “patients with elevated baseline ALT or AST improved into the normal range at six months” value in series [1] (two highest dose groups (125 mg, 250 mg)) is on record as “at least 50%”. Further, the “C-Reactive Protein levels” value in [1] (two lowest doses) is reported as “decrease”. The “nutrient-induced stellate cell activation and fibrosis (staining for collagen)” value in series [2] is “both prevented and reversed the effects of the nutrients”. In addition, the “glucose tolerance (GTT)” value in [3] (obese WT mice, GTT 20 h after a single gavage of 30 mg/kg, 30 mg/kg) is on record as “improves glucose tolerance”. Moreover, in series [4], the “Fatty acid oxidation (burning fat)” value was “Increased”, the “HIF1α (transcription factor responding to oxygen)” value is recorded as “Decreased”, the “Inflammation (ballooning due to injury)” value is recorded as “Decreased” and the “Insulin sensitivity (cellular response to insulin)” value is recorded as “Increased”. Also, in [4], the “PPARγ, PPARα (transcription factors regulating fat metabolism and inflammation)” value was “Increased”; the “SREBP (transcription factor regulating fat synthesis)” value was “Decreased”; the “de novo lipid synthesis (making new fat)” value is “Decreased”; the “mTORC1 (important nutrient sensor)” value was “Decreased”. Moreover, in [5] (doses up to seven-fold the currently used clinical dose equivalents), the “safety findings in toxicological profile” value is “free acid, have been characterized and no significant safety findings”. Also, in series [5] (six- and twelve-month preclinical animal studies), the safety and tolerability was 0602K, MSDC-0602K was found to be safe and well-tolerated. For the same compound, in series [6] (30 mg/kg from week 4 or week 16 of a 19 week diet, mice or isolated hepatocytes), the “signals for activation of the stellate cells and fibrosis” value is given as “attenuated”.
Consider `COc1cccc(C(=O)COc2ccc(CC3SC(=O)NC3=O)cc2)c1` (centres unmarked) [MSDC-0602], for which the “most commonly reported adverse events” value in [7] was “commonly reported adverse events with MSDC-0602 were headache,; also recorded: emesis, diarrhea and abdominal bloating”. Further, in series [7] (MSDC-0602 or MSDC-0602K), the “deaths, serious adverse events, severe adverse events or discontinuations due to adverse events” value is recorded as “No deaths”. For the same compound, in series [7] (MSDC-0602 or MSDC-0602K), the “safety laboratory tests, vital signs, physical examination findings or electrocardiogram abnormalities considered clinically significant” value is reported as “events were reported. Overall, it was determined that there were no”. The half-life in series [8] was in the range of 11 to 17 h. The “binding to the MPC” value in series [9] is “maintain, and in some cases improve, binding to the MPC”. Moreover, the “plasma ALT and liver injury gene expression in LS-MPC2−/− mice” value in [3] (LS-MPC2−/− mice, acute treatment) is on record as “refractory to the beneficial effects”. In series [3] (WT mice, single dose (FIG. 3A)), the “plasma ALT concentrations” value is reported as “decreased plasma ALT concentrations”. For the same compound, the “gene expression for hepatic stellate cell activation and fibrotic scar formation” value in series [3] (WT mice, single dose (FIG. 3B)) is listed as “decreased gene expression”. In series [3] (both WT and LS-MPC2−/− mice, single dose 30 mg/kg), the plasma insulin values entry is recorded as “decreased”. Further, the “glucose tolerance (GTT)” value in series [3] (obese LS-MPC2−/− mice, GTT 20 h after a single dose of 30 mg/kg) is listed as “no improvement in glucose tolerance”; in series [3] (obese WT mice, GTT 20 h after a single gavage of 30 mg/kg) it was “improved glucose tolerance”. In addition, the “serum miRNAs altered by HTF-C diet” value in [10] is “largely corrected”. Moreover, the “protection against the high fat, high cholesterol, high sugar diet representative of NASH disease” value in series [6] (multiple animal models of NASH) was “has been shown to protect”.
In the case of `COc1cccc(C(O)COc2ccc(CC3SC(=O)NC3=O)cc2)c1` (centres unmarked) [primary metabolite of MSDC-0602], the “share of the combined exposure” value in [11] was “more than 90%”. Also, in series [9], the “binding to the MPC” value is “maintain, and in some cases improve, binding to the MPC”. Also, the “reduction in binding affinity for PPARγ compared to pioglitazone” value in series [12] is “more than fifty-fold reduction”.
